Test results taken from PMC6069109, “An Aspartate-Specific Solute-Binding Protein Regulates Protein Kinase G Activity To Control Glutamate Metabolism in Mycobacteria” (mBio, 2018).
Where two headings read alike, the source gives them in different places.

Assays:
Assay type in all cases: binding
GlnH [1] = target: T1, GlnH (Mycobacterium tuberculosis, UniProt P96257); assay: crystal structure, thermal melt shift
[2] = target: T2, C. glutamicum GlnH (GlnHcg) (Corynebacterium glutamicum, UniProt Q8NM30); assay: intrinsic tryptophan fluorescence, thermal melt shift
T2 construct: gene Cgl2750; soluble domain, N-terminal His6 tag

GlnH [3] = target: T1, GlnH; assay: crystal structure, ITC, thermal melt shift

T1 sequence (P96257 27-328 limits assumed): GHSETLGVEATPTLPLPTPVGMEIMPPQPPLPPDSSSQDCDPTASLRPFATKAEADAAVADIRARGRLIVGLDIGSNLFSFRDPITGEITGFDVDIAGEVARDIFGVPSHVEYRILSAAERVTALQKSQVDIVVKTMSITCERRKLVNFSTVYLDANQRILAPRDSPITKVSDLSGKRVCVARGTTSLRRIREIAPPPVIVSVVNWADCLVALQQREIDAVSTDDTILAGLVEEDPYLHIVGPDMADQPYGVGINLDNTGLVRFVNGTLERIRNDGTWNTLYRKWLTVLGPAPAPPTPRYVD
T2 sequence (Q8NM30 entry or part of it): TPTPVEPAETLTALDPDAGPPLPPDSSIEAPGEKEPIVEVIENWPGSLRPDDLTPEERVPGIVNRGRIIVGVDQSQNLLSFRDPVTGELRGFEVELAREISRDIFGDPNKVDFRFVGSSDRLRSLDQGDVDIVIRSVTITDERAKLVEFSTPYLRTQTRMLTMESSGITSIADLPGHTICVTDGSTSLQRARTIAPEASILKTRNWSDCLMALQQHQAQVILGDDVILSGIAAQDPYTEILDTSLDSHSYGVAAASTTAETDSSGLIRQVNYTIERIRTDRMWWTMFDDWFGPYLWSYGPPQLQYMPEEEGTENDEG

## NC(=O)C[C@H](N)C(=O)O [asparagine]
GlnH [1]
  crystal structure, thermal melt shift: 6H1U (GlnH with Asp), 6H20 (GlnH with Asn), and 6H2T (GlnH with Glu)

## N[C@@H](CC(=O)O)C(=O)O [aspartate]
[2]; read-out: Kd (μM)^a
  Kd: 550 ± 90 µM
GlnH [3]; read-out: Kd (μM)^a
  Kd: 4.8 ± 0.6 µM

## N[C@@H](CCC(=O)O)C(=O)O [glutamate]
[2]
  Kd: 2060 µM
GlnH [3]
  Kd: 15.2 ± 5.7 µM
